Reference: PMC11990805, “Investigation of Anticancer Peptides Derived from Arca Species Using In Silico Analysis” (Molecules, 2025)
Residues, ends and D or L forms follow the SMILES beside them. No end group written: not given here.

Assay: Hemolysis assay
Type: cell-based
Settings: sheep; 2% (v/v) erythrocyte suspension, 0.05-1 mg/mL, 37 °C 30 min; read-out: hemolysis rate
Protocol: The hemolytic activity was evaluated using a modified reference method. Briefly, sheep erythrocytes were isolated by centrifugation at 1000× g for 5 min following washing with physiological saline. The washing procedure was repeated until the supernatant became colorless, and the erythrocyte pellet was collected. A 2% (v/v) erythrocyte suspension was prepared in physiological saline. Aliquots (1 mL) of the suspension were incubated with peptide solutions (KW, WQIWYK, […]) at concentrations of 0.05, 0.1, 0.5, and 1 mg/mL. Experimental controls included 0.1% Triton X-100 (positive control) and sterile PBS (negative control). Following incubation at 37 °C for 30 min, samples were centrifuged at 1000× g for 5 min. Hemoglobin release was quantified by measuring the absorbance of 200 μL supernatant at 425 nm using a microplate reader. The hemolysis percentage was calculated as follows:Hemolysis (%) = (As − AN)/(AP − AN) × 100 where As, AN, and AP represent the absorbance values of the sample, negative control, and positive control, respectively.

| Molecule | hemolysis at 30 min |
| --- | --- |
| NCCCC[C@H](N)C(=O)N[C@@H](Cc1c[nH]c2ccccc12)C(=O)O [KW] (H-Lys-Trp-OH; N-terminus and C-terminus assumed) | < 5% |
| WQIWYK [WQIWYK] | < 5% |
